Test results: patent publication US20040071653A1, “Antimicrobial ternary surfactant blend comprising cationic, anionic, and bridging surfactants, and methods of preparing same” (Stepan Company, priority 2000, published 2004)

Key:
[1] = Draves wetting measurement; format: physicochemical; details: 0.1% in water
Text: (§1) In the following examples, all amounts are stated in percent by weight of active material unless indicated otherwise. Surface tension measurements, Draves wetting measurements, and Ross Miles foaming initial and final measurements all were taken at 0.1% concentration of the surfactant blend in water.

[2] = Surface tension measurement; format: physicochemical; details: 0.1% surfactant blend in water
Text: as §1

[3] = Ross Miles foaming, initial and final; format: physicochemical; details: 0.1% in water
Text: as §1

[4] = tested on: Staphylococcus aureus (ATCC 6538); assay: Minimum Inhibitory Concentration test, bacteriostatic responses; format: cell-based; details: for Bacteriostatic response S. aureus: triplicate; for Minimum Inhibitory Concentration S. aureus: lowest concentration completely inhibiting growth in all three replicates
Procedure: (§2) [table] [table] Add 0.1 ml of inoculum to each 20×150 mm test tube containing 9.0 ml of Nutrient or Sabouraud Dextrose Broth and 1 ml of a aqueous dilution of the test sample. Vortex tube to mix then incubate bacteria inoculated tubes at 36±1° C. for a minimum of 48±1 hour and fungi inoculated tubes at 28° C. for 7-10 days. Following incubation, observe tubes visually for the presence of growth (i.e. turbidity). Perform all testing in triplicate.

[5] = tested on: Pseudomonas aeruginosa (ATCC 15442); assay: as above; format: cell-based; details: for Bacteriostatic response P. aeruginosa: triplicate; for Minimum Inhibitory Concentration P. aeruginosa: lowest concentration completely inhibiting growth in all three replicates
Procedure: as §2

[6] = tested on: Escherichia coli (ATCC 11229); assay: as above; format: cell-based; details: for Bacteriostatic response E. coli: triplicate; for Minimum Inhibitory Concentration E. coli: lowest concentration completely inhibiting growth in all three replicates
Procedure: as §2

[7] = tested on: Aspergillus niger (ATCC 6275); assay: Time-Kill; format: cell-based; details: 100 ppm active
Procedure: (§3) Formulation 11-1 was prepared as described above and evaluated at two different concentrations against various microorganisms to determine the time required to kill certain levels of the microorganisms. Control formulation 11-2 was also tested in this assay at the same concentrations.
(§4) Preparation: Transfer each organism from stock slant to sterile Nutrient Broth (NB) tube. Incubate NB tubes at 36±1° C. After 24 hours incubation, subculture each broth culture to fresh tube of sterile NB. Repeat subculturing procedure at 24 hour intervals. Use cultures for testing after at least three consecutive 24 hour subculturings.
(§5) 2. Dispense 4.9 gram aliquots of each sample* into sterile medication tubes. Use one tube per organism. (*log10 reductions can be calculated by subtracting the log10 of the average inoculum count from the log10 of the test substance count after 30 seconds, 1 minute or 5 minutes contact)
(§6) 3. Centrifuge 18-24 hour broth culture of each test organism. Decant supernatant and re-suspend in equal volume of phosphate buffer. Re-centrifuge and re-suspend in phosphate buffer. Prepare 1:10 dilution of each culture suspension by adding 2 ml of culture to 18 ml of phosphate buffer. Mix by vortexing. Use this 1:10 dilution as the test inoculum.
(§7) 4. Perform initial plate count of the test inoculum by adding 0.1 ml of the inoculum to 4.9 grams of sterile distilled water. Vortex to mix, then remove 1 ml of solution and dilute in D/E Broth to 1:100,000. Plate 1:1,000, 1:10,000, and 1:100,000 dilutions in Microbial Content Agar (Difco).
(§8) 5. Begin testing of substances by adding 0.1 ml of test inoculum to sample tube. Vortex to mix. After 30 seconds, remove 1 ml of sample and add to 9 mls of DE broth, rinse pipette 5 times with sample and vortex. Remove additional 1 ml sample after 1 and 5 minutes contact and add to 9 mls of D/E Broth. Dilute each tube to 1:10,000 in D/E Broth and plate 1:1,000, 1:10,000, and 1:100,000 dilutions in Microbial Content Agar.
(§9) 7. After completion of step 6, perform final plate count of inoculum suspension by adding 0.1 ml of the suspension to 4.9 grams of sterile distilled water. Vortex to mix then remove 1 ml of solution and dilute in D/E Broth to 1:100,000. Plate 1:1,000, 1:10,000, and 1:100,000 dilutions in Microbial Content Agar (Difco).
(§10) 8. Incubate plates at 36±1° C. for 48 hours.
(§11) 9. Record all test results and calculate percent kills* after 30 seconds, 1 minute, and 5 minutes contact as follows: (*log10 reductions can be calculated by subtracting the log10 of the average inoculum count from the log10 of the test substance count after 30 seconds, 1 minute or 5 minutes contact) [formula]
(§12) X=Average of initial and final inoculum control counts, org/ml (Note: The difference between initial and final inoculum counts must be≦1 log for a valid study)
(§13) Y=Test substance bacterial count as org/ml after 30 seconds, 1 minute, or 5 minutes contact

[8] = tested on: Staphylococcus aureus (ATCC 6538); assay: Time-Kill; format: cell-based; details: 100 ppm active
Procedure: as §3, §4, §5, §6, §7, §8, §9, §10, §11, §12, §13

[9] = tested on: Candida albicans (ATCC 10231); assay: Time-Kill; format: cell-based; details: 100 ppm active
Procedure: as §3, §4, §5, §6, §7, §8, §9, §10, §11, §12, §13

[10] = tested on: Escherichia coli (ATCC 11229); assay: Time-Kill; format: cell-based; details: 100 ppm active
Procedure: as §3, §4, §5, §6, §7, §8, §9, §10, §11, §12, §13

Pa (ATCC 9027) = assay: Time-Kill; format: cell-based, Pseudomonas aeruginosa; details: 50 ppm active
Procedure: as §3, §4, §5, §6, §7, §8, §9, §10, §11, §12, §13

[11] = tested on: Psudomonas aeruginosa (ATCC 15442); assay: Time-Kill; format: cell-based, Pseudomonas aeruginosa; details: 100 ppm active
Procedure: as §3, §4, §5, §6, §7, §8, §9, §10, §11, §12, §13

[12] = tested on: Aspergillus niger (ATCC 16404); assay: Minimum Inhibitory Concentration test, fungistatic responses; format: cell-based; details: for Fungistatic response A. niger: triplicate; for Minimum Inhibitory Concentration A. niger: lowest concentration completely inhibiting growth in all three replicates
Procedure: as §2

[13] = tested on: Candida albicans (ATCC 10231); assay: as above; format: cell-based; details: for Fungistatic response C. albicans: triplicate; for Minimum Inhibitory Concentration C. albicans: lowest concentration completely inhibiting growth in all three replicates
Procedure: as §2

## Cocamidopropyl betaine [Amphosol ® CA]
[1]
  Wetting: 100 s
[2]
  Surface Tension: 36.75 mN/m
[3]
  Foaming Final: 12.9 cm
  Foaming Initial: 13 cm

## CCCCCCCCCC[N+](C)(C)C.[Cl-] [QC10, Decyltrimethylammonium chloride]
[1]
  Wetting: 100 s
[2]
  Surface Tension: 39.28 mN/m
[3]
  Foaming Final: 0/0 cm
  Foaming Initial: 0/0 cm

## N-Alkyl dimethyl benzyl ammonium chloride [BTC 65NF]
[4]; 1 ppm active
  Bacteriostatic response S. aureus: 000
[4]; 10 ppm active
  Bacteriostatic response S. aureus: 000
[4]; 100 ppm active
  Bacteriostatic response S. aureus: 000
[4]; 1000 ppm active
  Bacteriostatic response S. aureus: 000
[4]
  Minimum Inhibitory Concentration S. aureus: <1 ppm, active
[5]; 100 ppm active
  Bacteriostatic response P. aeruginosa: 000
[5]; 1000 ppm active
  Bacteriostatic response P. aeruginosa: 000
[5]
  Minimum Inhibitory Concentration P. aeruginosa: 100 ppm, active
[6]; 10 ppm active
  Bacteriostatic response E. coli: 000
[6]; 100 ppm active
  Bacteriostatic response E. coli: 000
[6]; 1000 ppm active
  Bacteriostatic response E. coli: 000
[6]
  Minimum Inhibitory Concentration E. coli: 10 ppm, active
[7]; 5 Minutes contact
  Percent Kill An: 92.3 % K
[7]; 30 Seconds contact
  Percent Kill An: 0.0 % K
[7]; 60 Seconds contact
  Percent Kill An: 22.5 % K
[8]; 5 Minutes contact
  Percent Kill Sa: >99.8 % K
[8]; 30 Seconds contact
  Percent Kill Sa: 65.5 % K
[8]; 60 Seconds contact
  Percent Kill Sa: 83.6 % K
[9]; 5 Minutes contact
  Percent Kill Ca: >99.7 % K
[9]; 30 Seconds contact
  Percent Kill Ca: >99.7 % K
[9]; 60 Seconds contact
  Percent Kill Ca: >99.7 % K
[10]; 5 Minutes contact
  Percent Kill Ec: >99.9 % K
[10]; 30 Seconds contact
  Percent Kill Ec: >99.9 % K
[10]; 60 Seconds contact
  Percent Kill Ec: >99.9 % K
Pa (ATCC 9027); 5 Minutes contact
  Percent Kill Pa (ATCC 9027): >99.9 % K
Pa (ATCC 9027); 30 Seconds contact
  Percent Kill Pa (ATCC 9027): 99.9 % K
Pa (ATCC 9027); 60 Seconds contact
  Percent Kill Pa (ATCC 9027): >99.9 % K
[11]; 5 Minutes contact
  Percent Kill Pa: 99.9 % K
[11]; 30 Seconds contact
  Percent Kill Pa: 99.9 % K
[11]; 60 Seconds contact
  Percent Kill Pa: 99.9 % K
[12]; 10 ppm active
  Fungistatic response A. niger: 000
[12]; 100 ppm active
  Fungistatic response A. niger: 000
[12]; 1000 ppm active
  Fungistatic response A. niger: 000
[12]
  Minimum Inhibitory Concentration A. niger: 10 ppm, active
[13]; 10 ppm active
  Fungistatic response C. albicans: 000
[13]; 100 ppm active
  Fungistatic response C. albicans: 000
[13]; 1000 ppm active
  Fungistatic response C. albicans: 000
[13]
  Minimum Inhibitory Concentration C. albicans: 10 ppm, active

## CCCCCCCCS(=O)(=O)[O-].[Na+] [BIO-TERGE PAS-8S, Sodium 1-octane sulfonate]
[4]
  Minimum Inhibitory Concentration S. aureus: >1000 ppm, active
[5]
  Minimum Inhibitory Concentration P. aeruginosa: >1000 ppm, active
[6]
  Minimum Inhibitory Concentration E. coli: >1000 ppm, active
[12]
  Minimum Inhibitory Concentration A. niger: >1000 ppm, active
[13]
  Minimum Inhibitory Concentration C. albicans: >1000 ppm, active

## CCCCCCCCCCCC[N+](C)(C)[O-] [AMMONYX-LO, Lauramine oxide]
[4]; 100 ppm active
  Bacteriostatic response S. aureus: 000
[4]; 1000 ppm active
  Bacteriostatic response S. aureus: 000
[4]
  Minimum Inhibitory Concentration S. aureus: 100 ppm, active
[5]
  Minimum Inhibitory Concentration P. aeruginosa: >1000 ppm, active
[6]; 1000 ppm active
  Bacteriostatic response E. coli: 000
[6]
  Minimum Inhibitory Concentration E. coli: 1000 ppm, active
[12]; 100 ppm active
  Fungistatic response A. niger: 000
[12]; 1000 ppm active
  Fungistatic response A. niger: 000
[12]
  Minimum Inhibitory Concentration A. niger: 100 ppm, active
[13]; 100 ppm active
  Fungistatic response C. albicans: 000
[13]; 1000 ppm active
  Fungistatic response C. albicans: 000
[13]
  Minimum Inhibitory Concentration C. albicans: 100 ppm, active
